“Also recorded” adds a separate entry of the source. Read-outs that look alike come from different tables or passages of the source.

The target in one data set is T1, CB1 receptor (Mus musculus, UniProt P47746).
T1 construct: from tissue; host or cells: mouse vas deferens (isolated tissue preparation)
Description: vas deferens inhibition of contractions (cannabinoid receptor modulating activity).

The test system of the next data set is wildtype mice. The data set can be described thus: hypothermia and hypomotility (temperature and 5 minute motility in openfield activity chamber) in wildtype mice. Format: in vivo, mouse. Here is the method:
Many CB1 agonists are known to induce psychotrophic associated “tetrad effects” due to central binding to CB receptors [Howlett, A. C. et al, International Union of Pharmacology. XXVII, Pharmacol. Rev. 2002, 54, 161-202]. Studies were undertaken to investigate whether the compounds of the present invention also bound to central CB1 receptors. This is assessed by measuring the ability of the compounds to induce sedation, ptosis, hypomotility, catalepsy and hypothermia in normal mice [Brooks, J. W. et al, Eur. J. Pharmacol. 2002, 439, 83-92], following i.v., i.p. and oral administration.
A CNS excluded compound provides a tool for examining if a component of a cannabinoid anti-spastic effect is mediated via peripheral CB receptors. […] As stated above there is no established role for peripheral cannabinoid receptors in the control of spasticity, however, spasticity is likely to be a product of nerve damage in the spinal cord, at least in EAE, [Baker, D. et al, FASEB J. 2001, 15, 300-302; Baker, D. et al, J. Neuroimmunol. 1990, 28, 261-270] and aberrant signals to and from the musculature are likely, at least in part to contribute to the muscle spasms occurring in spasticity.

A further data set concerns CREAE mice. The data set can be described thus: assessment of spasticity in CREAE mice (resistance to full flexion of hindlimbs against a strain gauge). In kind it is in vivo, mouse. The method, then: Spasticity developed following the development of chronic EAE induced by injection of mouse spinal cord homogenate in Freund's complete adjuvant on day 0 & 7. This occurred 60-80 days post-induction in wildtype ABH.Cnr1+/+ mice and 30-40 days post-induction in CB1 receptor gene (Cnr1)-deficient ABH.Cnr1−/− mice). Spasticity was assessed by resistance to full flexion of hindlimbs against a strain gauge [Baker et al 2000], before and after treatment with either the full CB1/CB2 agonist CP55,940 or full CB1/CB2/“CB3” agonist injected intraperitoneally or compound (16) injected intravenously in vehicle (alcohol:cremophor:PBS (1:1:18)). […] Statistical analysis was performed on raw data and were analysed pairwise from baseline levels (*** P<0.001).
Further studies were undertaken using cannabinoid knockout mice, including CB1, CB2, VR-1, FAAH and conditional CB1 knockout mice. […] Spasticity is assessed (n=6-7/group) by resistance to hindlimb flexion using a strain gauge [Baker, D. et al, Nature 2000, 404, 84-87]. Animals serve as their own controls and will be analysed in a pairwise fashion. […] Low doses of CB1 agonists and CNS active CP55,940, as control, are locally (subcutaneous, intra-muscularly) administered into spastic ABH mice and the lack of activity in a contralateral limb analysed [Fox, A. et al, Pain 2001, 92, 91-100]. […]

T1 sequence (P47746 whole entry): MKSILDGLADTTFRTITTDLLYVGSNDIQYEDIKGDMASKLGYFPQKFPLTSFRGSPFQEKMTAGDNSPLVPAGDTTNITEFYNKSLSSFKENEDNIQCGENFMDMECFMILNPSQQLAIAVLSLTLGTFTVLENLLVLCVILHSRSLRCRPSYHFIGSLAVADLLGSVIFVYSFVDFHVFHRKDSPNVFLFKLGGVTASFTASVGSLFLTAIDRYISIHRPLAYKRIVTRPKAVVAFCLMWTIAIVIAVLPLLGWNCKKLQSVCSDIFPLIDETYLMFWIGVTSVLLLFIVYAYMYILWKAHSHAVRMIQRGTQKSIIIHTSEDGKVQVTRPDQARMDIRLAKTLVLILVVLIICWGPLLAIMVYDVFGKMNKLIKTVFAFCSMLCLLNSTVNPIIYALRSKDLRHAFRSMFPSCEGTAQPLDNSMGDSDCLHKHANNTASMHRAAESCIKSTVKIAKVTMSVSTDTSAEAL

Turning to `CC(CO)NC(=O)c1cccc(/C=C\CCCC(=O)N(C)C)c1` (racemic) [Compound 16, 3-(5-Dimethylcarbamoyl-pent-1-enyl)-N-(2-hydroxy-1-methyl-ethyl)benzamide], on CB1 receptor (in presence of SR141716A), the “effect of CB1 antagonist SR141716A on the compound's effect in vas deferens” value is on record as “neutralised by the CB1-antagonist SR141716A; also recorded: inhibited by the selective CB1 antagonist SR141716A”. For the same molecule, the IC50 is approximately 1 nM on CB1 receptor (mouse vas deferens preparation, FIG. 1, read-out: IC50, vas deferens preparation) and approximately 0.1 nM at CB1 receptor (rat vas deferens, FIG. 1 legend, read-out: IC50, inhibition of contractions). The “CNS effects: hypothermia and hypomotility” value was “inactive” with wildtype mice (wildtype mice, 20 mg/kg i.v.) and “inactive; also recorded: no hypothermia or hypomotility was observed” in the data set on wildtype mice (wildtype/normal mice, 1 mg/kg, 20 min after injection, 1 mg/kg). Also, the anti-spastic activity result with CREAE mice (administered in PBS alone (not shown)) is on record as “active”; in the data set with CREAE mice (wildtype ABH mice with CREAE, injected intravenously in alcohol:cremophor:PBS (1:1:18), 10 minutes after administration) it was “significant anti-spastic activity; also recorded: marked effect on spasticity; also recorded: selective inhibition of spasticity without producing CNS effects”.

On to `Cc1c(C(=O)c2cccc3ccccc23)c2cccc3c2n1[C@H](CN1CCOCC1)CO3` [R(+)WIN55,212, reference compound], for which the “CNS effects: temperature and motility” value with wildtype mice (wildtype mice, 20 min after injection, dose not given) was “induced typical cannabinmimetic effects”.

These data come from patent publication US8293796B2, “Modulator” (University College London, priority 2004, dated 2012).
